The record followed here is PMC5748833, “Synthesis and Biological Evaluation of Novel Hybrid Molecules Containing Purine, Coumarin and Isoxazoline or Isoxazole Moieties” (The Open Medicinal Chemistry Journal, 2017).

Assay [1] in a line: Competition of the tested compounds with DMSO for hydroxyl radicals. Particulars: 100 μM compound, Fe3+/ascorbic acid, 30 min, 37°C; 100 µM. The procedure:
2.2.2.2 Competition of the tested compounds with DMSO for hydroxyl radicals
The hydroxyl radicals generated by the Fe ^3+ /ascorbic acid system, were detected according to Nash, by the determination of formaldehyde produced from the oxidation of DMSO. The reaction mixture contained EDTA (0.1 mM), Fe ^3+ (167 μM), DMSO (33 mM) in phosphate buffer (50 mM, pH 7.4), the tested compounds (concentration 0.1mM) and ascorbic acid (10 mM). After 30 min of incubation (37°C) the reaction was stopped with CCl3COOH (17% w/v) (Table 5). Trolox was used as a standard.
Superoxide (O2^-.) anion and hydroxyl radical (^.OH) are free radical species of potential importance. In the acidic conditions of ischemic brain, O2^-. is probably protonated to give HO2^-. species. Iron released from damaged brain cells is more likely to be readily available to catalyze the generation of OH radicals. Among the ROS, the hydroxyl (^•OH) free radical is possibly the most toxic, as it reacts with a number of biological important molecules. Polyunsaturated fatty acids are found in high concentrations in the CNS, and are particularly vulnerable by free radicals. Thus, we tried to test the ability of our compounds to scavenge hydroxyl radicals. […] All the derivatives of series 13 (except of 13i) present high antioxidant activity (80-100%) which is not able to be correlated with any specific structural characteristic since all contain a coumarin, a purine and an isoxazolyl moiery. […] It seems that the overall molar configuration influences the response. However, antioxidants with hydrophilic or lipophilic character are both needed to act as radical scavengers in the aqueous phase or as chain-breaking antioxidants in biological membranes.

Assay [2] in a line: Inhibition of linoleic acid lipid peroxidation (AAPH). Particulars: 100 μM compound, 37°C. In short, it runs like this:
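Sodium linoleate oxidation in 0.05 M phosphate buffer, pH 7.4, at 37°C, initiated by AAPH, with test compounds added from DMSO stock. Conjugated diene hydroperoxide formation followed at 234 nm, with a DMSO-only control and Trolox as standard.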

For a further assay, the target named is T1, soybean lipoxygenase (Glycine max, UniProt P08170).
T1 construct: purchased Sigma Chemical, Co. (St. Louis, MO, USA)
T1 sequence (P08170 1-839): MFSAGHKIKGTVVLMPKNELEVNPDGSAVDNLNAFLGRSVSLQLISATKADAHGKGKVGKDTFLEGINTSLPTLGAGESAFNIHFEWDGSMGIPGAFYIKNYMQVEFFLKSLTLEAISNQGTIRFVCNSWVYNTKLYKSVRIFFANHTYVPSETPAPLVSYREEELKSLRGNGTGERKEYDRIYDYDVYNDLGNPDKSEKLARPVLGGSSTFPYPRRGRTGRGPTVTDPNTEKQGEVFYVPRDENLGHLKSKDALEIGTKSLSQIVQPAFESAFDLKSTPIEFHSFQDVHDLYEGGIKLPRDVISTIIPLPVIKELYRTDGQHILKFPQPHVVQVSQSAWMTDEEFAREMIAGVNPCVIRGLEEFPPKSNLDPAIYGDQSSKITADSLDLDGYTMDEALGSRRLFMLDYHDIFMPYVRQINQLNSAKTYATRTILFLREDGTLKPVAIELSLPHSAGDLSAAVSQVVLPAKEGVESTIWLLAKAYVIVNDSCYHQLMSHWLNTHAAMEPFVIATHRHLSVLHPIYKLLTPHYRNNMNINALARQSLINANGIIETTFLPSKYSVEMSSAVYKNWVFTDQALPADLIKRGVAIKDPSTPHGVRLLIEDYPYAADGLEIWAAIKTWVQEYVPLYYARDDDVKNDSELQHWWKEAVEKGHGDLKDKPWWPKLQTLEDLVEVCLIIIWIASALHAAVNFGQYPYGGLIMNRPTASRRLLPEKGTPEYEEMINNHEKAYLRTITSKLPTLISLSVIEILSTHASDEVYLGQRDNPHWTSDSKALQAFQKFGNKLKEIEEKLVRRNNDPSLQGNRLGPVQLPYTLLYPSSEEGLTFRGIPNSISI
The assay is described as follows: Soybean lipoxygenase inhibition in vitro. The format is biochemical. The note with it: for IC50: read-out: LOX IC50 μΜ.

Assay [3] concerns the target T2, electric eel acetylcholinesterase (eeAChE) (Electrophorus electricus, UniProt O42275).
T2 construct: purchased Sigma
In words: biochemical. The assay is classed as biochemical. Particulars: read-out: eeAChE IC50 μΜ. The source says: (§1) 2.2.2.5 Inhibition Study on ChEs in vitro
(§2) In vitro inhibition of electric eel acetylcholinesterase (eeAChE; 463 U/mg, Sigma) and equine serum butyrylcholinesterase (esBChE; 13 U/mg, Sigma) was investigated with a 96-well plate procedure based on the classical Ellman’s spectrophotometric test, as already described.

Assay [4] concerns the target T3, equine serum butyrylcholinesterase (esBChE) (Equus caballus, UniProt P81908).
T3 construct: purchased Sigma; host or cells: equine serum
The assay is described as follows: Inhibition of esBChE (Ellman's test). The assay is classed as biochemical. The note with it: read-out: esBChE % inhibn. @ 10 μΜ.
Text: as §1, §2

T2 sequence (O42275 24-633): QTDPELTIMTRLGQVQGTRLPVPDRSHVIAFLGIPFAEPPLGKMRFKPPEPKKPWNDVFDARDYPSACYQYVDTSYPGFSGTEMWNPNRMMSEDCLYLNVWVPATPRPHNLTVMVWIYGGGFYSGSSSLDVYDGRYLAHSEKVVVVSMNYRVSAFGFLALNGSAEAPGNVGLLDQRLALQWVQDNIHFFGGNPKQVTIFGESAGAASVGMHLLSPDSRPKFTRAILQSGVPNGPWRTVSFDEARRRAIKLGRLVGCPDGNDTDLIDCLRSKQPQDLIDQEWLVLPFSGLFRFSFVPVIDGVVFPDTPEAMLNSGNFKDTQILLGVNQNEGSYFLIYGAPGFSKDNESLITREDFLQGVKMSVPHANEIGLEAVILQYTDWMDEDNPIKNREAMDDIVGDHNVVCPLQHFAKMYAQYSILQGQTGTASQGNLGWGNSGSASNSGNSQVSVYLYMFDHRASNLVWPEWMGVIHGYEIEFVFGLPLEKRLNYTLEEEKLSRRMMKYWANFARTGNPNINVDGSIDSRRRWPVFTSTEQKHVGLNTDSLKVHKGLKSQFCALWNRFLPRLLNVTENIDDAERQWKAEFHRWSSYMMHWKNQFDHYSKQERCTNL
T3 sequence (P81908 whole entry): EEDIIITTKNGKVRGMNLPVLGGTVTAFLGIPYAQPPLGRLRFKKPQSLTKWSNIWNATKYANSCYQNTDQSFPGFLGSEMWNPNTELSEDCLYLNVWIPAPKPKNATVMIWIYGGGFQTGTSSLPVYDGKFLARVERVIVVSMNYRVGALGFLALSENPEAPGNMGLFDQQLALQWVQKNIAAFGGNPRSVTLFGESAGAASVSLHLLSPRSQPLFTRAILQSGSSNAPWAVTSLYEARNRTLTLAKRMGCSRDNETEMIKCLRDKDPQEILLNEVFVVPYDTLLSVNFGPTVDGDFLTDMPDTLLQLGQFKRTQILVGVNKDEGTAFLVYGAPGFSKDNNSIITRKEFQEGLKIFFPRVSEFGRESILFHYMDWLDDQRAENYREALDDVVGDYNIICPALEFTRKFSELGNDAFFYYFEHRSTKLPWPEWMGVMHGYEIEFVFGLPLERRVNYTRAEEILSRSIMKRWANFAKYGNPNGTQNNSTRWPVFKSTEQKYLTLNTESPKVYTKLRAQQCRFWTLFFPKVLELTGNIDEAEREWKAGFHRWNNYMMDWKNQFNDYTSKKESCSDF

The term IC50 denotes the concentration that inhibits the measured activity by half. Regarding `O=c1cc(OCc2cc(Cn3cnc4c(N5CCOCC5)ncnc43)no2)c2ccccc2o1` [13i], in assay [1], the “∙ΟΗ % @ 100μΜ (hydroxyl radical scavenging, percent inhibition of formaldehyde production)” value was “did not present any activity and no”. Also, the “LP % @ 100μΜ (inhibition of lipid peroxidation)” value in assay [2] stood at 74%. For the same compound, the figures for the IC50 (on soybean lipoxygenase; in assay [3]) were 76 µM and 5 µM, respectively. In addition, the inhibition at 10 µM in assay [4] was 18%.
With `O=c1cc(OCC2CC(Cn3cnc4c(N5CCCCC5)ncnc43)=NO2)c2ccccc2o1` (stereo not drawn) [4f], the “∙ΟΗ % @ 100μΜ (hydroxyl radical scavenging, percent inhibition of formaldehyde production)” value in assay [1] is “did not present any activity and no”. The “LP % @ 100μΜ (inhibition of lipid peroxidation)” value in assay [2] is recorded as 62%. The IC50 turned out to be 53 µM on soybean lipoxygenase and 1.4 µM in assay [3]. For the same compound, the inhibition at 10 µM in assay [4] was found to be 36%.
As to `Cc1cc(=O)oc2ccc(OCC3=NOC(Cn4cnc5c(Cl)ncnc54)C3)cc12` (stereo not drawn) [11b], in assay [1], the “∙ΟΗ % @ 100μΜ (hydroxyl radical scavenging, percent inhibition of formaldehyde production)” value was “did not present any activity and no”. Further, in assay [2], the “LP % @ 100μΜ (inhibition of lipid peroxidation)” value is “no”. In addition, on soybean lipoxygenase (100 μM compound), the “%LOX @ 100μΜ” value is on record as “no”. Moreover, the IC50 in assay [3] came to 5.9 µM. Besides, the inhibition at 10 µM in assay [4] came to 8%.
